# Values quoted from earlier work as cited in patent EP1479382A1, “Oral pharmaceutical compositions containing taxanes and methods for treatment employing the same” (IVAX Research, Inc., priority 1999, dated 2000).
# Read-outs that look alike come from different tables or passages of the source.
compound,measurement,setting,value
CC(=O)O[C@H]1C(=O)[C@@]2(C)[C@H]([C@H](OC(=O)c3ccccc3)[C@]3(O)C[C@H](OC(=O)[C@H](O)[C@@H](NC(=O)c4ccccc4)c4ccccc4)C(C)=C1C3(C)C)[C@]1(OC(C)=O)CO[C@@H]1C[C@@H]2O [paclitaxel],inhibition of tubulin disassembly occurs at levels of,tubulin,about 0.1 µM
same,inhibition of tubulin disassembly occurs at levels of,tubulin; same level expressed in ng/ml,about 85 ng/ml
same,inhibition of protein isoprenylation occurs at levels of,protein isoprenylation,about 0.03 µM
same,inhibition of protein isoprenylation occurs at levels of,protein isoprenylation; same level expressed in ng/ml,about 25 ng/ml
